Reference: ChEMBL document CHEMBL4825682, “Discovery of novel purinylthiazolylethanone derivatives as anti-Candida albicans agents through possible multifaceted mechanisms” (Eur J Med Chem, 2021)
In brackets after ≈: the same amount, converted by molar mass. Activity calls are given as the source filed them. The rule behind the calls is not given here.

How the values were obtained:
Candida albicans [1] = test: Antifungal activity against Candida albicans assessed as fungal growth inhibition by CLSI protocol based microbroth dilution method; type: functional
Candida albicans [2] = test: Antifungal activity against Candida albicans ATCC 90023 assessed as fungal growth inhibition by CLSI protocol based microbroth dilution method; type: functional
Candida tropicalis = test: Antifungal activity against Candida tropicalis assessed as fungal growth inhibition by CLSI protocol based microbroth dilution method; type: functional
Aspergillus fumigatus = test: Antifungal activity against Aspergillus fumigatus assessed as fungal growth inhibition by CLSI protocol based microbroth dilution method; type: functional
Candida parapsilosis = test: Antifungal activity against Candida parapsilosis ATCC 22019 assessed as fungal growth inhibition by CLSI protocol based microbroth dilution method; type: functional; settings: Lodderomyces parapsilosis
[3] = Hemolytic activity in human RBC; type: cell-based, Erythrocyte; settings: human red blood cells (erythrocytes)
Candida albicans [4] = test: Antifungal activity against Candida albicans measured after 8 passages; type: functional, organism-based

Q: With O=C(Cn1cnc2c(N3CCNCC3)ncnc21)c1nccs1 as the compound, how does the MIC (Candida albicans [1]) read?
A: 64 µg/mL (≈ 194 µM)

Q: And the MIC (Candida albicans [2])?
A: 32 µg/mL (≈ 97.1 µM)

Q: And the MIC (Candida tropicalis)?
A: 32 µg/mL (≈ 97.1 µM)

Q: And the MIC (Aspergillus fumigatus)?
A: 64 µg/mL (≈ 194 µM)

Q: What about the MIC (Candida parapsilosis) of the same compound?
A: 256 µg/mL (≈ 777 µM)

Q: And the HC50 [3]?
A: > 256 µg/mL

Q: Which MIC (Candida albicans [1]) does the source give for O=C(Cn1cnc2c(N3CCN(Cc4ccc(Cl)cc4)CC3)ncnc21)c1nccs1 here?
A: 32 µg/mL (≈ 70.5 µM)

Q: What about the MIC (Candida albicans [2]) of the same compound?
A: 128 µg/mL (≈ 282 µM)

Q: And the MIC (Candida tropicalis)?
A: 4 µg/mL (≈ 8.81 µM)

Q: And the MIC (Aspergillus fumigatus)?
A: 64 µg/mL (≈ 141 µM)

Q: What about the MIC (Candida parapsilosis) of the same compound?
A: 64 µg/mL (≈ 141 µM)

Q: What about the HC50 [3] of the same compound?
A: > 256 µg/mL

Q: What does the source list for CCCCCCCCN1CCN(c2ncnc3c2ncn3CC(=O)c2nccs2)CC1?
A: MIC (Candida albicans [1]): 2 µg/mL (≈ 4.53 µM); MIC (Candida albicans [2]): 256 µg/mL (≈ 580 µM); MIC (Candida tropicalis): 16 µg/mL (≈ 36.2 µM); MIC (Aspergillus fumigatus): 64 µg/mL (≈ 145 µM); MIC (Candida parapsilosis): 16 µg/mL (≈ 36.2 µM); HC50 [3]: > 256 µg/mL

Q: Which MIC (Candida albicans [1]) does the source give for O=C(Cn1cnc2c(N3CCN(Cc4ccc([N+](=O)[O-])cc4)CC3)ncnc21)c1nccs1 here?
A: 8 µg/mL (≈ 17.2 µM)

Q: What about the MIC (Candida albicans [2]) of the same compound?
A: 128 µg/mL (≈ 276 µM)

Q: And the MIC (Candida tropicalis)?
A: 64 µg/mL (≈ 138 µM)

Q: And the MIC (Aspergillus fumigatus)?
A: 32 µg/mL (≈ 68.9 µM)

Q: What about the MIC (Candida parapsilosis) of the same compound?
A: 64 µg/mL (≈ 138 µM)

Q: And the HC50 [3]?
A: > 256 µg/mL

Q: Which results are given for O=C(Cn1cnc2c(N3CCCC3)ncnc21)c1nccs1?
A: MIC (Candida albicans [1]): 16 µg/mL (≈ 50.9 µM); MIC (Candida albicans [2]): 32 µg/mL (≈ 102 µM); MIC (Candida tropicalis): 64 µg/mL (≈ 204 µM); MIC (Aspergillus fumigatus): 32 µg/mL (≈ 102 µM); MIC (Candida parapsilosis): 32 µg/mL (≈ 102 µM); HC50 [3]: > 256 µg/mL

Q: For CCOC(=O)CN1CCN(c2ncnc3c2ncn3CC(O)c2nccs2)CC1 (configuration not stated), which MIC (Candida albicans [1]) is on record?
A: 128 µg/mL (≈ 307 µM)

Q: What about the MIC (Candida albicans [2]) of the same compound?
A: 64 µg/mL (≈ 153 µM)

Q: What about the MIC (Candida tropicalis) of the same compound?
A: 64 µg/mL (≈ 153 µM)

Q: What about the MIC (Aspergillus fumigatus) of the same compound?
A: 32 µg/mL (≈ 76.6 µM)

Q: And the MIC (Candida parapsilosis)?
A: 128 µg/mL (≈ 307 µM)

Q: What about the HC50 [3] of the same compound?
A: > 256 µg/mL

Q: For CCOC(=O)CN1CCN(c2ncnc3c2ncn3C/C(=N/OC)c2nccs2)CC1, which MIC (Candida albicans [1]) is on record?
A: 8 µg/mL (≈ 18 µM)

Q: What about the MIC (Candida albicans [2]) of the same compound?
A: 64 µg/mL (≈ 144 µM)

Q: What about the MIC (Candida tropicalis) of the same compound?
A: 64 µg/mL (≈ 144 µM)

Q: What about the MIC (Aspergillus fumigatus) of the same compound?
A: 32 µg/mL (≈ 72 µM)

Q: What about the MIC (Candida parapsilosis) of the same compound?
A: 128 µg/mL (≈ 288 µM)

Q: What about the HC50 [3] of the same compound?
A: > 256 µg/mL

Q: Which MIC (Candida albicans [1]) does the source give for CCO/N=C(/Cn1cnc2c(N3CCN(CC(=O)OCC)CC3)ncnc21)c1nccs1 here?
A: 64 µg/mL (≈ 140 µM)

Q: And the MIC (Candida albicans [2])?
A: 64 µg/mL (≈ 140 µM)

Q: What about the MIC (Candida tropicalis) of the same compound?
A: 128 µg/mL (≈ 279 µM)

Q: What about the MIC (Aspergillus fumigatus) of the same compound?
A: 128 µg/mL (≈ 279 µM)

Q: And the MIC (Candida parapsilosis)?
A: 128 µg/mL (≈ 279 µM)

Q: What about the HC50 [3] of the same compound?
A: > 256 µg/mL

Q: For O=C(Cn1cnc2c(N3CCN(CCO)CC3)ncnc21)c1nccs1, which MIC (Candida albicans [1]) is on record?
A: 1 µg/mL (≈ 2.68 µM)

Q: What about the MIC (Candida albicans [2]) of the same compound?
A: 256 µg/mL (≈ 686 µM)

Q: What about the MIC (Candida tropicalis) of the same compound?
A: 64 µg/mL (≈ 171 µM)

Q: What about the MIC (Aspergillus fumigatus) of the same compound?
A: 64 µg/mL (≈ 171 µM)

Q: And the MIC (Candida parapsilosis)?
A: 128 µg/mL (≈ 343 µM)

Q: And the HC50 [3]?
A: > 256 µg/mL

Q: Which MIC (Candida albicans [1]) does the source give for O=C(Cn1cnc2c(N3CCN(CC(=O)N(C4CCCCC4)C4CCCCC4)CC3)ncnc21)c1nccs1 here?
A: 8 µg/mL (≈ 14.5 µM)

Q: And the MIC (Candida albicans [2])?
A: 256 µg/mL (≈ 465 µM)

Q: What about the MIC (Candida tropicalis) of the same compound?
A: 16 µg/mL (≈ 29.1 µM)

Q: And the MIC (Aspergillus fumigatus)?
A: 32 µg/mL (≈ 58.1 µM)

Q: What about the MIC (Candida parapsilosis) of the same compound?
A: 16 µg/mL (≈ 29.1 µM)

Q: What about the HC50 [3] of the same compound?
A: > 256 µg/mL

Q: For O=C(Cn1cnc2c(Cl)ncnc21)c1nccs1, which MIC (Candida albicans [1]) is on record?
A: 64 µg/mL (≈ 229 µM)

Q: And the MIC (Candida albicans [2])?
A: 128 µg/mL (≈ 458 µM)

Q: And the MIC (Candida tropicalis)?
A: 32 µg/mL (≈ 114 µM)

Q: And the MIC (Aspergillus fumigatus)?
A: 128 µg/mL (≈ 458 µM)

Q: What about the MIC (Candida parapsilosis) of the same compound?
A: 64 µg/mL (≈ 229 µM)

Q: And the HC50 [3]?
A: > 256 µg/mL

Q: For Cc1ccc(CN2CCN(c3ncnc4c3ncn4CC(=O)c3nccs3)CC2)cc1, which MIC (Candida albicans [1]) is on record?
A: 16 µg/mL (≈ 36.9 µM)

Q: What about the MIC (Candida albicans [2]) of the same compound?
A: 128 µg/mL (≈ 295 µM)

Q: And the MIC (Candida tropicalis)?
A: 64 µg/mL (≈ 148 µM)

Q: And the MIC (Aspergillus fumigatus)?
A: 64 µg/mL (≈ 148 µM)

Q: And the MIC (Candida parapsilosis)?
A: 64 µg/mL (≈ 148 µM)

Q: And the HC50 [3]?
A: > 256 µg/mL

Q: Which results are given for CC(C)N(C(=O)CN1CCN(c2ncnc3c2ncn3CC(=O)c2nccs2)CC1)C(C)C?
A: MIC (Candida albicans [1]): 4 µg/mL (≈ 8.5 µM); MIC (Candida albicans [2]): 16 µg/mL (≈ 34 µM); MIC (Candida tropicalis): 8 µg/mL (≈ 17 µM); MIC (Aspergillus fumigatus): 32 µg/mL (≈ 68 µM); MIC (Candida parapsilosis): 32 µg/mL (≈ 68 µM); HC50 [3]: > 256 µg/mL

Q: Which results are given for OC(Cn1cncn1)(Cn1cncn1)c1ccc(F)cc1F [FLUCONAZOLE]?
A: MIC (Candida albicans [1]): 4 µg/mL (≈ 13.1 µM); MIC (Candida albicans [2]): 2 µg/mL (≈ 6.53 µM); MIC (Candida tropicalis): 8 µg/mL (≈ 26.1 µM); MIC (Aspergillus fumigatus): 256 µg/mL (≈ 836 µM); MIC (Candida parapsilosis): 4 µg/mL (≈ 13.1 µM); HC50 [3]: > 256 µg/mL; Activity (Candida albicans [4]): Active

Q: With CCCCCCN1CCN(c2ncnc3c2ncn3CC(=O)c2nccs2)CC1 as the compound, how does the MIC (Candida albicans [1]) read?
A: 4 µg/mL (≈ 9.67 µM)

Q: And the MIC (Candida albicans [2])?
A: 16 µg/mL (≈ 38.7 µM)

Q: And the MIC (Candida tropicalis)?
A: 32 µg/mL (≈ 77.4 µM)

Q: What about the MIC (Aspergillus fumigatus) of the same compound?
A: 128 µg/mL (≈ 310 µM)

Q: And the MIC (Candida parapsilosis)?
A: 4 µg/mL (≈ 9.67 µM)

Q: What about the HC50 [3] of the same compound?
A: > 256 µg/mL

Q: What does the source list for O=C(Cn1cnc2c(N3CCOCC3)ncnc21)c1nccs1?
A: MIC (Candida albicans [1]): 64 µg/mL (≈ 194 µM); MIC (Candida albicans [2]): 2 µg/mL (≈ 6.05 µM); MIC (Candida tropicalis): 32 µg/mL (≈ 96.9 µM); MIC (Aspergillus fumigatus): 64 µg/mL (≈ 194 µM); MIC (Candida parapsilosis): 2 µg/mL (≈ 6.05 µM); HC50 [3]: > 256 µg/mL
